Data from the supplement of paper PMC4862054.

Experiments:
Conditions in all cases: incubation time: 72 h
MFM-223 [1] = experiment: normalised viability (% of control), CellTiter-Blue; higher = more viable cells (100 = DMSO, 0 = benzethonium chloride kill control)
Outline: (§1)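 Each entry is normalised viability at a single listed concentration within a series. It comes from breast cancer cell lines incubated 72 h with compound in 384-well plates, then measured with CellTiter-Blue fluorescence at 560/590 nm. Every plate was normalised between vehicle (100) and a positive kill control (0).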

HCC1599 [2] = experiment: as above
Outline: as §1

MDA-MB-468 [3] = experiment: as above
Outline: as §1

SK-BR-3 [4] = experiment: as above
Outline: as §1

HCC1937 [5] = experiment: as above
Outline: as §1

CAL-51 [6] = experiment: as above
Outline: as §1

Hs578T [7] = experiment: as above
Outline: as §1

BT-549 [8] = experiment: as above
Outline: as §1

CAL-120 [9] = experiment: as above
Outline: as §1

MDA-MB-453 [10] = experiment: as above
Outline: as §1

CAL-148 [11] = experiment: as above
Outline: as §1

CAL-85-1 [12] = experiment: as above
Outline: as §1

BT-474 [13] = experiment: as above
Outline: as §1

MDA-MB-231 [14] = experiment: as above
Outline: as §1

HCC1143 [15] = experiment: as above
Outline: as §1

DU-4475 [16] = experiment: as above
Outline: as §1

MDA-MB-436 [17] = experiment: as above
Outline: as §1

HDQ-P1 [18] = experiment: as above
Outline: as §1

MFM-223 [19] = experiment: normalised response (% of control), CellTiter-Glo; higher = more viable cells (100 = DMSO, 0 = benzethonium chloride kill control)
Outline: (§2)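 Each entry is the normalised signal at a single concentration within a series. The series comprised 5 concentrations in 10-fold steps over a compound-specific 10,000-fold range, placed in 384-well plates into which breast cancer cell lines were seeded as 20 µl suspension and incubated 72 h. CellTox Green (485/520 nm) fluorescence and then CellTiter-Glo luminescence were read, with signals normalised per plate to 0.1 % DMSO (100) and a positive kill control (0).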

HCC1599 [20] = experiment: as above
Outline: as §2

MDA-MB-468 [21] = experiment: as above
Outline: as §2

SK-BR-3 [22] = experiment: as above
Outline: as §2

HCC1937 [23] = experiment: as above
Outline: as §2

CAL-51 [24] = experiment: as above
Outline: as §2

MCF-10A = experiment: as above
Outline: as §2

Hs578T [25] = experiment: as above
Outline: as §2

BT-549 [26] = experiment: as above
Outline: as §2

CAL-120 [27] = experiment: as above
Outline: as §2

MDA-MB-453 [28] = experiment: as above
Outline: as §2

CAL-148 [29] = experiment: as above
Outline: as §2

CAL-85-1 [30] = experiment: as above
Outline: as §2

BT-474 [31] = experiment: as above
Outline: as §2

MDA-MB-231 [32] = experiment: as above
Outline: as §2

HCC1143 [33] = experiment: as above
Outline: as §2

DU-4475 [34] = experiment: as above
Outline: as §2

MDA-MB-436 [35] = experiment: as above
Outline: as §2

HDQ-P1 [36] = experiment: as above
Outline: as §2

| Structure (SMILES) | normalised viability (MFM-223 [1]) | normalised viability (HCC1599 [2]) | normalised viability (MDA-MB-468 [3]) | normalised viability (SK-BR-3 [4]) | normalised viability (HCC1937 [5]) | normalised viability (CAL-51 [6]) | normalised viability (Hs578T [7]) | normalised viability (BT-549 [8]) | normalised viability (CAL-120 [9]) | normalised viability (MDA-MB-453 [10]) | normalised viability (CAL-148 [11]) | normalised viability (CAL-85-1 [12]) | normalised viability (BT-474 [13]) | normalised viability (MDA-MB-231 [14]) | normalised viability (HCC1143 [15]) | normalised viability (DU-4475 [16]) | normalised viability (MDA-MB-436 [17]) | normalised viability (HDQ-P1 [18]) | normalised response (MFM-223 [19]) | normalised response (HCC1599 [20]) | normalised response (MDA-MB-468 [21]) | normalised response (SK-BR-3 [22]) | normalised response (HCC1937 [23]) | normalised response (CAL-51 [24]) | normalised response (MCF-10A) | normalised response (Hs578T [25]) | normalised response (BT-549 [26]) | normalised response (CAL-120 [27]) | normalised response (MDA-MB-453 [28]) | normalised response (CAL-148 [29]) | normalised response (CAL-85-1 [30]) | normalised response (BT-474 [31]) | normalised response (MDA-MB-231 [32]) | normalised response (HCC1143 [33]) | normalised response (DU-4475 [34]) | normalised response (MDA-MB-436 [35]) | normalised response (HDQ-P1 [36]) |
| --- | --- | --- | --- | --- | --- | --- | --- | --- | --- | --- | --- | --- | --- | --- | --- | --- | --- | --- | --- | --- | --- | --- | --- | --- | --- | --- | --- | --- | --- | --- | --- | --- | --- | --- | --- | --- | --- |
| C#Cc1cccc(Nc2ncnc3cc(OC)c(OCCCCCCC(=O)NO)cc23)c1 [CUDC-101] (1 nM) | 78% | 115% | 94.4% | 82.3% | 85.9% | 111% | 94.9% | 96% | 79.4% | 88% | 97.1% | 77.3% | 108% | 94.9% | 79.9% | 97.5% | 96.4% | 85.7% | 98.5% | 108% | 93.8% | 90.8% | 96.6% | 74.1% | 90.8% | 101% | 101% | 100% | 108% | 98.2% | 94.8% | 96.5% | 109% | 102% | 99.1% | 98.6% | 97% |
| CC(=O)O[C@H]1C(=O)[C@@]2(C)[C@H]([C@H](OC(=O)c3ccccc3)[C@]3(O)C[C@H](OC(=O)[C@H](O)[C@@H](NC(=O)c4ccccc4)c4ccccc4)C(C)=C1C3(C)C)[C@]1(OC(C)=O)CO[C@@H]1C[C@@H]2O [Paclitaxel] (0.1 nM) | 93.9% | 102% | 105% | 90.2% | 84.3% | 93.8% | 103% | 116% | 90.6% | 97.5% | 106% | 98.2% | 82% | 73.8% | 106% | 115% | 95.8% | 82.6% | 89.9% | 100% | 95.7% | 88.4% | 90.5% | 103% | 87.9% | 100% | 100% | 89.7% | 89.9% | 89.6% | 99.2% | 95.5% | 96.6% | 93.6% | 93.8% | 98.7% | 96.4% |
| O=c1[nH]c(=O)n([C@H]2C[C@H](O)[C@@H](CO)O2)cc1F [Floxuridine] (1 nM) | 103% | 95.7% | 99.9% | 97.2% | 89.2% | 98.2% | 130% | 123% | 100% | 108% | 102% | 94.1% | 91.2% | 99% | 98.6% | 104% | 112% | 108% | 110% | 96.9% | 105% | 107% | 99.1% | 120% | 115% | 103% | 102% | 101% | 104% | 97.7% | 95.9% | 104% | 107% | 97.6% | 103% | 132% | 102% |
| COc1cccc2c1C(=O)c1c(O)c3c(c(O)c1C2=O)C[C@@](O)(C(C)=O)C[C@@H]3O[C@H]1C[C@H](N)[C@H](O)[C@H](C)O1 [Daunorubicin] (0.1 nM) | 97.3% | 101% | 100% | 85.2% | 115% | 99.2% | 130% | 100% | 87.8% | 107% | 106% | 88.7% | 101% | 103% | 102% | 88.2% | 99.1% | 98.8% | 108% | 104% | 102% | 101% | 95.6% | 108% | 112% | 107% | 106% | 99% | 112% | 112% | 102% | 108% | 105% | 103% | 100% | 129% | 104% |
